From ChEMBL document CHEMBL3112450, “Synthesis and in vitro antitumor evaluation of primary amine substituted quinazoline linked benzimidazole” (Bioorg Med Chem Lett, 2014)

Assays:
Assay type in all cases: functional
SNB-75 = test: Cytotoxicity against human SNB75 cells assessed as cell growth at 10^-5 M after 48 hrs by SRB assay; settings: SNB-75, 48 h, read-out: Activity
MDA-MB-468 = test: Cytotoxicity against human MDA-MB-468 cells assessed as cell growth at 10^-5 M after 48 hrs by SRB assay; settings: MDA-MB-468, 48 h, read-out: Activity
BT-549 = test: Cytotoxicity against human BT549 cells assessed as cell growth at 10^-5 M after 48 hrs by SRB assay; settings: BT-549, 48 h, read-out: Activity
[1] = Cytotoxicity against human Hs578T cells assessed as cell growth at 10^-5 M after 48 hrs by SRB assay; settings: Hs-578T, read-out: Activity
MDA-MB-231 = test: Cytotoxicity against human MDA-MB-231 cells assessed as cell growth at 10^-5 M after 48 hrs by SRB assay; settings: MDA-MB-231, 48 h, read-out: Activity
MCF7 = test: Cytotoxicity against human MCF7 cells assessed as cell growth at 10^-5 M after 48 hrs by SRB assay; settings: MCF7, 48 h, read-out: Activity
DU-145 = test: Cytotoxicity against human DU145 cells assessed as cell growth at 10^-5 M after 48 hrs by SRB assay; settings: DU-145, 48 h, read-out: Activity
TK-10 = test: Cytotoxicity against human TK10 cells assessed as cell growth at 10^-5 M after 48 hrs by SRB assay; settings: TK-10, 48 h, read-out: Activity
RXF 393 = test: Cytotoxicity against human RXF393 cells assessed as cell growth at 10^-5 M after 48 hrs by SRB assay; settings: RXF 393, 48 h, read-out: Activity
SN12C = test: Cytotoxicity against human SN12C cells assessed as cell growth at 10^-5 M after 48 hrs by SRB assay; settings: read-out: Activity
ACHN = test: Cytotoxicity against human ACHN cells assessed as cell growth at 10^-5 M after 48 hrs by SRB assay; settings: read-out: Activity
A498 = test: Cytotoxicity against human A498 cells assessed as cell growth at 10^-5 M after 48 hrs by SRB assay; settings: A498, 48 h, read-out: Activity
OVCAR-8 = test: Cytotoxicity against human OVCAR8 cells assessed as cell growth at 10^-5 M after 48 hrs by SRB assay; settings: OVCAR-8, 48 h, read-out: Activity
[2] = Cytotoxicity against human NCI-ADR-RES cells assessed as cell growth at 10^-5 M after 48 hrs by SRB assay; settings: read-out: Activity
[3] = Cytotoxicity against human OVCAR4 cells assessed as cell growth at 10^-5 M after 48 hrs by SRB assay; settings: OVCAR-4, 48 h, read-out: Activity
IGROV-1 = test: Cytotoxicity against human IGROV1 cells assessed as cell growth at 10^-5 M after 48 hrs by SRB assay; settings: IGROV-1, 48 h, read-out: Activity
M14 = test: Cytotoxicity against human M14 cells assessed as cell growth at 10^-5 M after 48 hrs by SRB assay; settings: M14, 48 h, read-out: Activity
MDA-MB-435 = test: Cytotoxicity against human MDA-MB-435 cells assessed as cell growth at 10^-5 M after 48 hrs by SRB assay; settings: MDA-MB-435, 48 h, read-out: Activity
U-251 = test: Cytotoxicity against human U251 cells assessed as cell growth at 10^-5 M after 48 hrs by SRB assay; settings: U-251, 48 h, read-out: Activity
SNB-19 = test: Cytotoxicity against human SNB19 cells assessed as cell growth at 10^-5 M after 48 hrs by SRB assay; settings: SNB-19, 48 h, read-out: Activity
SF-295 = test: Cytotoxicity against human SF295 cells assessed as cell growth at 10^-5 M after 48 hrs by SRB assay; settings: SF-295, 48 h, read-out: Activity
SW-620 = test: Cytotoxicity against human SW620 cells assessed as cell growth at 10^-5 M after 48 hrs by SRB assay; settings: SW-620, 48 h, read-out: Activity
KM12 = test: Cytotoxicity against human KM12 cells assessed as cell growth at 10^-5 M after 48 hrs by SRB assay; settings: KM12, 48 h, read-out: Activity
HT-29 = test: Cytotoxicity against human HT-29 cells assessed as cell growth at 10^-5 M after 48 hrs by SRB assay; settings: HT-29, 48 h, read-out: Activity
HCT-116 = test: Cytotoxicity against human HCT116 cells assessed as cell growth at 10^-5 M after 48 hrs by SRB assay; settings: HCT-116, 48 h, read-out: Activity
NCI-H522 = test: Cytotoxicity against human NCI-H522 cells assessed as cell growth at 10^-5 M after 48 hrs by SRB assay; settings: NCI-H522, 48 h, read-out: Activity
NCI-H460 = test: Cytotoxicity against human NCI-H460 cells assessed as cell growth at 10^-5 M after 48 hrs by SRB assay; settings: NCI-H460, 48 h, read-out: Activity
NCI-H322M = test: Cytotoxicity against human NCI-H322M cells assessed as cell growth at 10^-5 M after 48 hrs by SRB assay; settings: read-out: Activity
NCI-H23 = test: Cytotoxicity against human NCI-H23 cells assessed as cell growth at 10^-5 M after 48 hrs by SRB assay; settings: NCI-H23, 48 h, read-out: Activity
NCI-H226 = test: Cytotoxicity against human NCI-H226 cells assessed as cell growth at 10^-5 M after 48 hrs by SRB assay; settings: NCI-H226, 48 h, read-out: Activity
HOP-92 = test: Cytotoxicity against human HOP92 cells assessed as cell growth at 10^-5 M after 48 hrs by SRB assay; settings: HOP-92, 48 h, read-out: Activity
A549 = test: Cytotoxicity against human A549 cells assessed as cell growth at 10^-5 M after 48 hrs by SRB assay; settings: A549, 48 h, read-out: Activity
HOP-62 = test: Cytotoxicity against human HOP62 cells assessed as cell growth at 10^-5 M after 48 hrs by SRB assay; settings: HOP-62, 48 h, read-out: Activity
SR = test: Cytotoxicity against human SR cells assessed as cell growth at 10^-5 M after 48 hrs by SRB assay; settings: read-out: Activity
RPMI-8226 = test: Cytotoxicity against human RPMI8226 cells assessed as cell growth at 10^-5 M after 48 hrs by SRB assay; settings: RPMI-8226, 48 h, read-out: Activity
MOLT-4 = test: Cytotoxicity against human MOLT4 cells assessed as cell growth at 10^-5 M after 48 hrs by SRB assay; settings: MOLT-4, 48 h, read-out: Activity
CCRF-CEM = test: Cytotoxicity against human CCRF-CEM cells assessed as cell growth at 10^-5 M after 48 hrs by SRB assay; settings: read-out: Activity

Row | Structure (SMILES) | growth at 10 µM (SNB-75) | growth at 10 µM (MDA-MB-468) | growth at 10 µM (BT-549) | growth at 10 µM [1] | growth at 10 µM (MDA-MB-231) | growth at 10 µM (MCF7) | growth at 10 µM (DU-145) | growth at 10 µM (TK-10) | growth at 10 µM (RXF 393) | growth at 10 µM (SN12C) | growth at 10 µM (ACHN) | growth at 10 µM (A498) | growth at 10 µM (OVCAR-8) | growth at 10 µM [2] | growth at 10 µM [3] | growth at 10 µM (IGROV-1) | growth at 10 µM (M14) | growth at 10 µM (MDA-MB-435) | growth at 10 µM (U-251) | growth at 10 µM (SNB-19) | further results
1 | C=CCn1c(C)nc2ccc(Nc3nc(Nc4ccc(F)cc4)nc4ccccc34)cc21 | -68% | -90% | 21% | 50% | -8% | -63% | 47% | 40% | -92% | 11% | -54% | 42% | 4% | 20% | -26% | 39% | 8% | 24% | 17% | 48% | growth at 10 µM (SF-295): 31.4%; growth at 10 µM (SW-620): 1%; growth at 10 µM (KM12): 22%; growth at 10 µM (HT-29): 5%; growth at 10 µM (HCT-116): -11%; growth at 10 µM (NCI-H522): 8%; growth at 10 µM (NCI-H460): 11%; growth at 10 µM (NCI-H322M): 41%; growth at 10 µM (NCI-H23): 28%; growth at 10 µM (NCI-H226): -62%; growth at 10 µM (HOP-92): -8%; growth at 10 µM (A549): 26%; growth at 10 µM (HOP-62): -70%; growth at 10 µM (SR): -27%; growth at 10 µM (RPMI-8226): -43%; growth at 10 µM (MOLT-4): -18%; growth at 10 µM (CCRF-CEM): 2%
2 | C=CCn1c(C)nc2cc(Nc3nc(NCCO)nc4ccccc34)ccc21 | 76.4% | 53.5% | 92.5% | 77.5% | 72.9% | 72.2% | 98.8% | 118% | 97.5% | 84.7% | 90.5% | 55.4% | 73.6% | 97.7% | 65.2% | 95.3% | 93.3% | 92.1% | 90.9% | 90.2% | growth at 10 µM (SF-295): 90.6%; growth at 10 µM (SW-620): 68.2%; growth at 10 µM (KM12): 73.1%; growth at 10 µM (HT-29): 64.5%; growth at 10 µM (HCT-116): 64%; growth at 10 µM (NCI-H522): 88.1%; growth at 10 µM (NCI-H460): 96%; growth at 10 µM (NCI-H322M): 91.3%; growth at 10 µM (NCI-H23): 81.9%; growth at 10 µM (NCI-H226): 78.8%; growth at 10 µM (HOP-92): 57.9%; growth at 10 µM (A549): 92.3%; growth at 10 µM (HOP-62): 83.3%; growth at 10 µM (SR): 68.8%; growth at 10 µM (RPMI-8226): 63.4%; growth at 10 µM (MOLT-4): 56.7%; growth at 10 µM (CCRF-CEM): 81.9%
3 | C=CCn1c(C)nc2cc(Nc3nc(Nc4ccc5nc(C)n(CC=C)c5c4)nc4ccccc34)ccc21 | 90.8% | 118% | 106% | 100% | 90% | 92.4% | 115% | 130% | 124% | 96.5% | 104% | 125% | 98.9% | 101% | 99.5% | 102% | 109% | 108% | 94.4% | 100% | growth at 10 µM (SW-620): 106%; growth at 10 µM (KM12): 109%; growth at 10 µM (HT-29): 103%; growth at 10 µM (HCT-116): 98.9%; growth at 10 µM (NCI-H522): 99.1%; growth at 10 µM (NCI-H460): 117%; growth at 10 µM (NCI-H322M): 109%; growth at 10 µM (NCI-H23): 94.2%; growth at 10 µM (NCI-H226): 99.8%; growth at 10 µM (HOP-92): 79.8%; growth at 10 µM (A549): 96.3%; growth at 10 µM (HOP-62): 101%; growth at 10 µM (SR): 106%; growth at 10 µM (RPMI-8226): 98.8%; growth at 10 µM (MOLT-4): 101%; growth at 10 µM (CCRF-CEM): 94.8%
